Measurements reported in patent US9006454B2, “Dihydroorotate dehydrogenase inhibitors” (Merck Serono S.A., priority 2009, dated 2015).

Key:
DHODH = DHODH (Homo sapiens (Human), UniProt Q02127); assay: DHODH activity assay (coupled enzyme assay, DCIP reduction, absorbance at 610 nm); type: biochemical; conditions: for inhibition at 10 µM / inh @ 10 uM hDHODH (%): compound at 10 uM; for inhibition at 10 µM: read-out: inh @ 10 uM hDHODH (%)
Protocol: The DHODH activity assay is a coupled enzyme assay in which oxidation of DHO and subsequent reduction of ubiquinone are stoichiometrically equivalent to the reduction of DCIP ([…]). The reduction of DCIP is accompanied by a loss of absorbance at 610 nm.
Buffer Preparation: 50 mM tris HCl, 150 mM KCl, and pH 8.0, 0.8% triton.
5 μL of Dimethyl sulfoxide or a compound of formula I in DMSO solution was added to the wells of a 96 well plate. Compounds of formula I were measured at 10 μM.
Protein along with buffer was added, so that the total volume including the DMSO was 87 μL. Compound and protein were incubated for half an hour at room temperature after mixing. 5 μL of 20 mM solution of L-Dihydroorotic acid, 5 μL of 2 mM solution of Decylubiquinone and 3 μL of 2 mM solution of 2,6-Dichloroindophenol sodium salt hydrate were added to the above solution (total assay volume 100 μL). The mixture was stirred for 2 min and absorbance was recorded at every 10 min at 610 nanometers.
Percent Inhibition is Calculated as Follows
Positive control contains DMSO, buffer, enzyme and substrates
No Enzyme reaction contains DMSO, buffer and substrates
IC50 determination: • A 2 mM DMSO stock of the compound of formula I to be examined was prepared. ⅓rd dilutions were made as follows:
5 μL of each stock of compound of formula I (solution indicated in column 4 of table) was used for each 100 μL assay. Therefore, 5 μL of the 2 mM stock provided 100 μL of 100 μM solution of compound of formula I, when made up with buffer, protein and substrate. See also: Ulrich et al. (2001) Eur. J. Biochem. 268, 1861-1868.

Jurkat cells = assay: Measurement of cell proliferation (Jurkat cell), XTT assay; type: cell-based; conditions: for inhibition at 1 µM: compound at 1 uM, read-out: % inh Jurkat_cells @ 1 uM (%); for EC50: XTT cell viability
Protocol: See also Roehm, N et al [1991] An improved colorimetric assay for cell proliferation and viability utilizing the tetrazolium salt XTT. J. Immunol. Methods 142:257-265.
Culture Jurkat cells in T-25 flasks at a density of 0.2×10^6/ml 2-3 days before the day of experiment set up.
Centrifuge Jurkat T-cell suspension at 1200 rpm for 10 minutes and resuspend cells again in fresh RPMI medium with 10% FBS.
Count the cells and dilute suspension to a density of 2×10^6 cells/ml. Seed 50 μL of this suspension in each well of a 96 well plate (100,000 cells per well). Keep the edges of the plate empty to avoid evaporation.
Serially dilute DMSO stocks of compounds to get different concentrations for an EC50 curve. 50 μL of compound diluted in media (2× concentration required in well) is added to each well. DMSO concentration should be kept constant at 0.25-0.5% for all wells.
Typically, for all compounds with IC50<1 μM, compound concentration can start at 10 μM followed by half log dilutions for a total of 8-10 concentrations. Each concentration has to be tested in triplicate.
Include controls such as cells without compound (with same DMSO concentration as compound wells), and media control
Incubate the 96 well plate in a CO2 incubator at 37° C. for 72 hrs before determining cell viability using XTT assay
XTT assay: to each well, add 50 μL of 1 mg/ml XTT solution with 20 μl of PMS/mL. Read the plates after 2 hours at 465 nm using the spectrophotometer. XTT reading for media without cells is used as background reading.
Calculate % cell viability assuming that the cells without compound are 100% viable.
Plot % cell viability as a function of concentration and determine EC50 by using software such as Graph Pad Prism to fit the curve.

DHODH, sequence (Q02127 whole entry): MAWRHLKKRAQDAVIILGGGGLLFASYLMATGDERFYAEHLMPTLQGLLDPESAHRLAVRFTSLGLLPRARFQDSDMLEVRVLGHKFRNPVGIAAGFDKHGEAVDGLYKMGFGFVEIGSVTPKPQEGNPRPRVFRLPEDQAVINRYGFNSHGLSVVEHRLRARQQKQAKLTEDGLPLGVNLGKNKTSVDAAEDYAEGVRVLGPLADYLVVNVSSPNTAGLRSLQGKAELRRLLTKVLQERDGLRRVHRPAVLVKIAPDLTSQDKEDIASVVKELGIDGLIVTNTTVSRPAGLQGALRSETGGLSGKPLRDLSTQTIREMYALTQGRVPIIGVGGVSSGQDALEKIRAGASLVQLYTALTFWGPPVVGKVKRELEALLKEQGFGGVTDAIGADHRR

Compound	IC50 (DHODH)	inhibition at 10 µM (DHODH)	inhibition at 1 µM (Jurkat cells; Homo sapiens, Jurkat)	EC50 (Jurkat cells; Homo sapiens, Jurkat, 72 h)	inh @ 10 uM hDHODH (%) (DHODH)	EC50 (Jurkat cells; 72 hrs)
Cc1cc(C(=O)O)c2nc(-c3ccc(-c4ccc(Oc5ccccc5C=O)cc4)cc3)[nH]c2c1 [I142]	1.05 µM	84.7%	54.5%	–	–	–
Cc1cc(C(=O)O)c2nc(-c3ccc(-c4cccs4)cc3)[nH]c2c1 [I149]	1.68 µM	88.4%	47.5%	–	–	–
Cc1cc(C(=O)O)c2nc(-c3ccc(-c4cccc(OCc5ccccc5)c4)cc3)[nH]c2c1 [I115]	1.2 µM	88%	52%	–	–	–
Cc1cc(C(=O)O)c2nc(-c3c(F)c(F)c(-n4c(C)ccc4C)c(F)c3F)[nH]c2c1 [I82, 2-[4-(2,5-Dimethyl-pyrrol-1-yl)-2,3,5,6-tetrafluoro-phenyl]-6-methyl-1H-benzoimidazole-4-carboxylic acid]	0.0056 µM	111%	106%	–	–	–
Cc1cc(C(=O)O)c2[nH]c(-c3ccc(-c4ccc(OCCO)cc4)cc3)nc2c1 [I99]	3.1 µM	71%	27.7%	–	–	–
O=C(O)c1cccc2cc(-c3ccc(-c4ccccc4)cc3)[nH]c12 [I61]	0.595 µM	94.8%	67.2%	0.202 µM	–	–
O=C(O)c1cccc2[nH]c(-c3ccc(-c4ccc(OCc5ccncc5)cc4)cc3)nc12 [I183]	–	63.9%	23.5%	–	–	–
COc1cccc(-c2ccc(-c3nc4c(C(=O)O)cccc4[nH]3)c(F)c2)c1 [I5]	0.368 µM	–	–	–	94.3%	0.356 µM
O=C(O)c1cccc2[nH]c(-c3ccc(-c4ccc(Oc5ccccn5)cc4)cc3)nc12 [I172]	–	60%	21%	–	–	–
Cc1cc(C(=O)O)c2nc(-c3c(F)c(F)c(-c4ccsc4)c(F)c3F)[nH]c2c1 [I139]	0.05 µM	105%	94.9%	–	–	–
Cc1cc(C(=O)O)c2[nH]c(-c3ccc(-c4ccccc4F)cc3)nc2c1 [I26]	0.373 µM	93.9%	75.9%	0.105 µM	–	–
Cc1cc(C(=O)O)c2nc(-c3c(F)c(F)c(-c4cc(F)cc(F)c4)c(F)c3F)[nH]c2c1 [I146]	0.021 µM	96.4%	89.9%	0.013 µM	–	–
Cc1cc(C(=O)O)c2nc(C#Cc3ccccc3)[nH]c2c1 [I84, 6-Methyl-2-phenylethynyl-1H-benzoimidazole-4-carboxylic acid]	–	59.5%	–	–	–	–
Cc1cc(C(=O)O)c2nc(-c3ccc(-c4ccc(O)cc4)cc3)[nH]c2c1 [I117]	0.35 µM	102%	76%	–	–	–
Cc1cc(C(=O)O)c2nc(-c3ccc(-c4ccc(CN5CCCC5)cc4)cc3)[nH]c2c1 [I164]	–	59.3%	12.1%	–	–	–
O=C(O)c1cc(F)cc2nc(-c3ccc(-c4ccccc4)cc3F)[nH]c12 [Example 29, 6-Fluoro-2-(3-fluoro-biphenyl-4-yl)-3H-benzoimidazole-4-carboxylic acid]	–	93.4%	71.6%	–	–	–
O=C(O)c1cccc2[nH]c(-c3ccc(-c4cccc(OC(F)(F)F)c4)cc3)nc12 [I18]	1.26 µM	89%	43.1%	–	–	–
Cc1cc(C(=O)O)c2nc(-c3ccc(-c4cccc(F)c4F)cc3)[nH]c2c1 [I52]	0.898 µM	84.4%	56.7%	–	–	–
Cc1cc(C(=O)O)c2nc(-c3ccc(-c4ccc(OCc5ccccn5)cc4)cc3)[nH]c2c1 [I119]	2.23 µM	88.1%	40.3%	–	–	–

Compound	IC50 (DHODH)	inhibition at 10 µM (DHODH)	inhibition at 1 µM (Jurkat cells; Homo sapiens, Jurkat)	EC50 (Jurkat cells; Homo sapiens, Jurkat, 72 h)	inh @ 10 uM hDHODH (%) (DHODH)	EC50 (Jurkat cells; 72 hrs)
O=C(O)c1cccn2nc(-c3ccc(-c4ccccc4)cc3)nc12 [I122]	1.2 µM	88%	55.4%	–	–	–
Cc1cc(C(=O)O)c2[nH]c(-c3c(F)c(F)c(-c4ccccc4OCc4ccccc4)c(F)c3F)nc2c1 [I100]	0.06 µM	104%	96.2%	–	–	–
Cc1cc(C(=O)O)c2[nH]c(-c3ccc(-n4c(C)ccc4C)cc3)nc2c1 [I121]	0.401 µM	108%	70.7%	–	–	–
Cc1cc(C(=O)O)c2c(c1)nc(-c1c(F)c(F)c(-c3ccccc3)c(F)c1F)n2C [I123]	0.003 µM	105%	111%	0.041 µM	–	–
COc1cccc(-c2ccc(-c3nc4c(C(=O)O)cccc4[nH]3)c(F)c2)c1 [I3]	0.616 µM	–	–	–	92.6%	0.753 µM
Cn1c(-c2ccc(-c3ccccc3)cc2)nc2c(C(=O)O)cccc21 [I7]	–	30.2%	–	–	–	–
FC(F)(F)c1cccc2[nH]c(-c3ccc(-c4ccccc4)cc3)nc12 [I43]	–	5.6%	–	–	–	–
O=C(O)c1cccc2[nH]c(-c3ccc(-c4ccc(C(F)(F)F)cc4)cc3)nc12 [I13]	–	10.6%	–	–	–	–
Cc1ccc(-c2ccc(-c3nc4c(C(=O)O)cccc4[nH]3)cc2)cc1 [I12]	–	9%	–	–	–	–
O=C(O)c1cccc2nc(-c3ccc(N4CCOCC4)cc3)[nH]c12 [I62]	–	8.4%	–	–	–	–
Cc1cc(C(=O)O)c2[nH]c(-c3c[nH]c4ccccc34)nc2c1 [I42]	–	7.1%	–	–	–	–
Cc1nc(-c2ccc(-c3nc4cccc(C(=O)O)c4[nH]3)cc2)oc1C [I66]	–	8.4%	–	–	–	–
Cc1cc(C(=O)O)c2nc(-c3ccc(-c4cnccn4)cc3)[nH]c2c1 [I147]	8.45 µM	44.3%	–	–	–	–
COc1cccc(-c2ccc(-c3nc4c(C(=O)O)cccc4[nH]3)c(F)c2)c1 [I4]	–	–	–	–	2.1%	–
O=C(O)c1cccc2[nH]c(-c3ccc(OCc4ccccc4)cc3)nc12 [I2]	4.95 µM	66.1%	–	–	–	–
Cc1cc(C(=O)O)c2nc(-c3c(F)c(F)c(-c4ccccc4)c(F)c3F)n(C)c2c1 [I113]	0.116 µM	95%	–	–	–	–
Cc1cc(C(=O)O)c2nc(-c3ccc(N4CCCCCC4=O)cc3)[nH]c2c1 [I80, 6-Methyl-2-[4-(2-oxo-azepan-1-yl)-phenyl]-1H-benzoimidazole-4-carboxylic acid]	–	9.4%	–	–	–	–
Cn1c(-c2ccc(-c3ccccc3)cc2)nc2cccc(C(=O)O)c21 [I8]	1.6 µM	90.5%	–	–	–	–
COC(=O)c1cccc2nc(-c3ccc(-c4ccccc4)cc3)[nH]c12 [I79, 2-Biphenyl-4-yl-1H-benzoimidazole-4-carboxylic acid methyl ester]	–	5.3%	–	–	–	–
